According to PubChem BioAssay AID1963427 (Molecular Pharmacology Branch, DTP, NCI, 2024):
pIC50: −log10 of the molar value.

Tested on: 317291-083-R-J1-PDC complex spheroid growth
Assay: Anticancer human tumor 317291-083-R-J1-PDC patient-derived soft tissue sarcoma cell line growth inhibition [Asc]
Settings: for pIC50: curve of first compound; for viability, T/C: stronger effect = lower value
Procedure, shortened: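 Tumor cells were grown as multicellular spheroids with stromal HUVEC and mesenchymal stem cells and treated singly or in combination. Concentrations fell in half-log steps from the clinical Cmax, or from 10 microM where none was known.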

[1] = second compound 0.0316 µM, first compound 0.0316 µM
[2] = second compound 0.0316 µM, first compound 0.1 µM
[3] = second compound 0.1 µM, first compound 0.0316 µM
[4] = second compound 0.1 µM, first compound 0.1 µM
[5] = second compound 0.316 µM, first compound 0.0316 µM
[6] = second compound 0.316 µM, first compound 0.1 µM
[7] = second compound 1 µM, first compound 0.0316 µM
[8] = second compound 1 µM, first compound 0.1 µM
[9] = second compound 3.16 µM, first compound 0.0316 µM
[10] = second compound 3.16 µM, first compound 0.1 µM
[11] = second compound 10 µM, first compound 0.0316 µM
[12] = second compound 10 µM, first compound 0.1 µM
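Further: compound exposure lasted seven days after spheroids formed for three days.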
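Wherever viability, T/C is given: 100% = DMSO vehicle control wells.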

In the case of `CCN1C(C(=O)NC23CCC(C(=O)O)(CC2)CC3)C(c2cccc(Cl)c2F)C2(C(=O)Nc3cc(Cl)ccc32)C12CCCCC2` (stereo unspecified) + CNC(C)C(=O)NC1CN(S(=O)(=O)c2cccc(S(=O)(=O)N3CCC4CCC(C(=O)NC(c5ccccc5)c5ccccc5)N4C(=O)C(NC(=O)C(C)NC)C3)c2)CCC2CCC(C(=O)NC(c3ccccc3)c3ccccc3)N2C1=O, the pIC50 (second compound 0.00316 µM) was under 5.52, the pIC50 (second compound 0.01 µM) was under 5.52 and the pIC50 (second compound 0.0316 µM) was under 5.52. The pIC50 (second compound 0.1 µM) was under 5.52, the pIC50 (second compound 0.316 µM) was over 8.02 and the pIC50 (second compound 1 µM) was over 8.02. It also gave a viability, T/C (second compound 0.00316 µM, first compound 0.00949 µM) of 86%, a viability, T/C (second compound 0.00316 µM, first compound 0.03 µM) of 113% and a viability, T/C (second compound 0.00316 µM, first compound 0.0949 µM) of 100%. The viability, T/C (second compound 0.00316 µM, first compound 0.3 µM) was 108%, the viability, T/C (second compound 0.00316 µM, first compound 0.949 µM) was 84.6% and the viability, T/C (second compound 0.00316 µM, first compound 3 µM) was 65.1%. It also gave a viability, T/C (second compound 0.01 µM, first compound 0.00949 µM) of 68.5%, a viability, T/C (second compound 0.01 µM, first compound 0.03 µM) of 95.9% and a viability, T/C (second compound 0.01 µM, first compound 0.0949 µM) of 83.7%. It also gave a viability, T/C (second compound 0.01 µM, first compound 0.3 µM) of 71.9%, a viability, T/C (second compound 0.01 µM, first compound 0.949 µM) of 63.3% and a viability, T/C (second compound 0.01 µM, first compound 3 µM) of 56.1%. For the same compound, the viability, T/C (second compound 0.0316 µM, first compound 0.00949 µM) was 82.5%, the viability, T/C (second compound 0.0316 µM, first compound 0.03 µM) was 85.6% and the viability, T/C (second compound 0.0316 µM, first compound 0.0949 µM) was 79.2%. It also gave a viability, T/C (second compound 0.0316 µM, first compound 0.3 µM) of 78.1%, a viability, T/C (second compound 0.0316 µM, first compound 0.949 µM) of 63.8% and a viability, T/C (second compound 0.0316 µM, first compound 3 µM) of 60.5%. The viability, T/C (second compound 0.1 µM, first compound 0.00949 µM) was 55.4%, the viability, T/C (second compound 0.1 µM, first compound 0.03 µM) was 61.9% and the viability, T/C (second compound 0.1 µM, first compound 0.0949 µM) was 66.2%. It also gave a viability, T/C (second compound 0.1 µM, first compound 0.3 µM) of 67.3%, a viability, T/C (second compound 0.1 µM, first compound 0.949 µM) of 60% and a viability, T/C (second compound 0.1 µM, first compound 3 µM) of 42.5%. The viability, T/C (second compound 0.316 µM, first compound 0.00949 µM) was 47.5%, the viability, T/C (second compound 0.316 µM, first compound 0.03 µM) was 55.3% and the viability, T/C (second compound 0.316 µM, first compound 0.0949 µM) was 45.5%. For the same compound, the viability, T/C (second compound 0.316 µM, first compound 0.3 µM) was 46.7%, the viability, T/C (second compound 0.316 µM, first compound 0.949 µM) was 49.4% and the viability, T/C (second compound 0.316 µM, first compound 3 µM) was 45.2%. For the same compound, the viability, T/C (second compound 1 µM, first compound 0.00949 µM) was 41.2%, the viability, T/C (second compound 1 µM, first compound 0.03 µM) was 31.3% and the viability, T/C (second compound 1 µM, first compound 0.0949 µM) was 32.4%. For the same compound, the viability, T/C (second compound 1 µM, first compound 0.3 µM) was 35.4%, the viability, T/C (second compound 1 µM, first compound 0.949 µM) was 30.5% and the viability, T/C (second compound 1 µM, first compound 3 µM) was 27.8%.
`C#Cc1c(F)ccc2cc(O)cc(-c3ncc4c(N5CC6CCC(C5)N6)nc(OCC56CCCN5CC(F)C6)nc4c3F)c12` (stereo unspecified) + Cc1c(S(C)(=O)=O)c(-c2cc(F)cc(N3CCN(c4ccc(NS(=O)(=O)c5ccc(NC(CCN6CCC(C(=O)OCCCP(=O)(O)O)CC6)CSc6ccccc6)c(S(=O)(=O)C(F)(F)F)c5)cc4)CC3)c2)c(-c2ccc(Cl)cc2)n1C(C)C was tested, and the pIC50 (second compound 0.0316 µM) was under 5.00, the pIC50 (second compound 0.1 µM) was under 5.00 and the pIC50 (second compound 0.316 µM) was under 5.00. It also gave a pIC50 (second compound 1 µM) of under 5.00, a pIC50 (second compound 3.16 µM) of under 5.00 and a pIC50 (second compound 10 µM) of 5.00. It also gave a viability, T/C [1] of 105%, a viability, T/C [2] of 89% and a viability, T/C (second compound 0.0316 µM, first compound 0.316 µM) of 102%. The viability, T/C (second compound 0.0316 µM, first compound 1 µM) was 84.6%, the viability, T/C (second compound 0.0316 µM, first compound 3.16 µM) was 96.7% and the viability, T/C (second compound 0.0316 µM, first compound 10 µM) was 68.8%. The viability, T/C [3] was 86.5%, the viability, T/C [4] was 101% and the viability, T/C (second compound 0.1 µM, first compound 0.316 µM) was 92.1%. The viability, T/C (second compound 0.1 µM, first compound 1 µM) was 87.7%, the viability, T/C (second compound 0.1 µM, first compound 3.16 µM) was 96.7% and the viability, T/C (second compound 0.1 µM, first compound 10 µM) was 70.1%. For the same compound, the viability, T/C [5] was 93.9%, the viability, T/C [6] was 87.3% and the viability, T/C (second compound 0.316 µM, first compound 0.316 µM) was 80.3%. For the same compound, the viability, T/C (second compound 0.316 µM, first compound 1 µM) was 78.9%, the viability, T/C (second compound 0.316 µM, first compound 3.16 µM) was 80.3% and the viability, T/C (second compound 0.316 µM, first compound 10 µM) was 62.5%. For the same compound, the viability, T/C [7] was 90.7%, the viability, T/C [8] was 70.3% and the viability, T/C (second compound 1 µM, first compound 0.316 µM) was 83.4%. It also gave a viability, T/C (second compound 1 µM, first compound 1 µM) of 67.6%, a viability, T/C (second compound 1 µM, first compound 3.16 µM) of 74.9% and a viability, T/C (second compound 1 µM, first compound 10 µM) of 58.4%. The viability, T/C [9] was 75.5%, the viability, T/C [10] was 67.1% and the viability, T/C (second compound 3.16 µM, first compound 0.316 µM) was 68.9%. It also gave a viability, T/C (second compound 3.16 µM, first compound 1 µM) of 71.7%, a viability, T/C (second compound 3.16 µM, first compound 3.16 µM) of 74.3% and a viability, T/C (second compound 3.16 µM, first compound 10 µM) of 53.2%. It also gave a viability, T/C [11] of 79.9%, a viability, T/C [12] of 101% and a viability, T/C (second compound 10 µM, first compound 0.316 µM) of 89.2%. For the same compound, the viability, T/C (second compound 10 µM, first compound 1 µM) was 76.9%, the viability, T/C (second compound 10 µM, first compound 3.16 µM) was 80.5% and the viability, T/C (second compound 10 µM, first compound 10 µM) was 49.1%.
In the case of `NC1CCC(NC2CC2c2ccccc2)CC1` (stereo unspecified) + Cc1c(S(C)(=O)=O)c(-c2cc(F)cc(N3CCN(c4ccc(NS(=O)(=O)c5ccc(NC(CCN6CCC(C(=O)OCCCP(=O)(O)O)CC6)CSc6ccccc6)c(S(=O)(=O)C(F)(F)F)c5)cc4)CC3)c2)c(-c2ccc(Cl)cc2)n1C(C)C, the pIC50 (second compound 0.0316 µM) was under 7.00, the pIC50 (second compound 0.1 µM) was under 7.00 and the pIC50 (second compound 0.316 µM) was under 7.00. The pIC50 (second compound 1 µM) was under 7.00, the pIC50 (second compound 3.16 µM) was under 7.00 and the pIC50 (second compound 10 µM) was under 7.00. For the same compound, the viability, T/C (second compound 0.0316 µM, first compound 0.000316 µM) was 120%, the viability, T/C (second compound 0.0316 µM, first compound 0.001 µM) was 87.3% and the viability, T/C (second compound 0.0316 µM, first compound 0.00316 µM) was 98.2%. The viability, T/C (second compound 0.0316 µM, first compound 0.01 µM) was 99%, the viability, T/C [1] was 106% and the viability, T/C [2] was 86.5%. For the same compound, the viability, T/C (second compound 0.1 µM, first compound 0.000316 µM) was 107%, the viability, T/C (second compound 0.1 µM, first compound 0.001 µM) was 78.9% and the viability, T/C (second compound 0.1 µM, first compound 0.00316 µM) was 90.2%. It also gave a viability, T/C (second compound 0.1 µM, first compound 0.01 µM) of 76.9%, a viability, T/C [3] of 77.6% and a viability, T/C [4] of 83.9%. For the same compound, the viability, T/C (second compound 0.316 µM, first compound 0.000316 µM) was 93.9%, the viability, T/C (second compound 0.316 µM, first compound 0.001 µM) was 100% and the viability, T/C (second compound 0.316 µM, first compound 0.00316 µM) was 80.2%. The viability, T/C (second compound 0.316 µM, first compound 0.01 µM) was 106%, the viability, T/C [5] was 109% and the viability, T/C [6] was 90.5%. For the same compound, the viability, T/C (second compound 1 µM, first compound 0.000316 µM) was 73.3%, the viability, T/C (second compound 1 µM, first compound 0.001 µM) was 75% and the viability, T/C (second compound 1 µM, first compound 0.00316 µM) was 93%. The viability, T/C (second compound 1 µM, first compound 0.01 µM) was 74.3%, the viability, T/C [7] was 107% and the viability, T/C [8] was 74.1%. For the same compound, the viability, T/C (second compound 3.16 µM, first compound 0.000316 µM) was 72.7%, the viability, T/C (second compound 3.16 µM, first compound 0.001 µM) was 81.7% and the viability, T/C (second compound 3.16 µM, first compound 0.00316 µM) was 79%. For the same compound, the viability, T/C (second compound 3.16 µM, first compound 0.01 µM) was 69.9%, the viability, T/C [9] was 87.6% and the viability, T/C [10] was 76%. It also gave a viability, T/C (second compound 10 µM, first compound 0.000316 µM) of 95.6%, a viability, T/C (second compound 10 µM, first compound 0.001 µM) of 91.9% and a viability, T/C (second compound 10 µM, first compound 0.00316 µM) of 97.8%. It also gave a viability, T/C (second compound 10 µM, first compound 0.01 µM) of 87.8%, a viability, T/C [11] of 94% and a viability, T/C [12] of 73.7%.
